How the values were obtained:
Experiment in all cases: relative viability (nuclei count vs DMSO), 5 days (fraction); higher = more cells survive
SW 1573 = test system: SW 1573
Method in brief: (§1)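 Relative viability is defined as nuclei in treated wells over nuclei in vehicle wells. Duplicate plates were run and medians reported. Lung cancer cell lines in 1536-well plates were dosed by pin tool one day after seeding, with one drug or with a fixed anchor-drug dose plus five library-drug doses (not always all listed) in √10 steps, and nuclei were counted after 5 days.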

NCI-H3122 = test system: NCI-H3122
Method in brief: as §1

HCC-827 = test system: HCC-827
Method in brief: as §1

NCI-H2085 = test system: NCI-H2085
Method in brief: as §1

LK-2 = test system: LK-2
Method in brief: as §1

RERF-LC-KJ = test system: RERF-LC-KJ
Method in brief: as §1

LXF-289 = test system: LXF-289
Method in brief: as §1

NCI-H23 = test system: NCI-H23
Method in brief: as §1

LOU-NH91 = test system: LOU-NH91
Method in brief: as §1

NCI-H1975 = test system: NCI-H1975
Method in brief: as §1

NCI-H1666 = test system: NCI-H1666
Method in brief: as §1

EMC-BAC-2 = test system: EMC-BAC-2
Method in brief: as §1

EPLC-272H = test system: EPLC-272H
Method in brief: as §1

HCC-78 = test system: HCC-78
Method in brief: as §1

NCI-H322M = test system: NCI-H322M
Method in brief: as §1

NCI-H2126 = test system: NCI-H2126
Method in brief: as §1

NCI-H1563 = test system: NCI-H1563
Method in brief: as §1

LU99A = test system: LU99A
Method in brief: as §1

SK-LU-1 = test system: SK-LU-1
Method in brief: as §1

NCI-H2405 = test system: NCI-H2405
Method in brief: as §1

## O=C(O)c1ccc(-c2c[nH]c3ncc(-c4ccccc4)cc23)cc1C1CCCC1 + CS(=O)(=O)CCNCc1ccc(-c2ccc3ncnc(Nc4ccc(OCc5cccc(F)c5)c(Cl)c4)c3c2)o1 [Lapatinib] (partner 2 µM)
SW 1573; first compound 0.04 µM
  relative viability: 1.15
SW 1573; first compound 0.1265 µM
  relative viability: 1.39
SW 1573; first compound 0.4 µM
  relative viability: 1.14
SW 1573; first compound 1.265 µM
  relative viability: 1.09
NCI-H3122; first compound 0.04 µM
  relative viability: 1.02
NCI-H3122; first compound 0.1265 µM
  relative viability: 1.01
NCI-H3122; first compound 0.4 µM
  relative viability: 0.974
NCI-H3122; first compound 1.265 µM
  relative viability: 0.857
HCC-827; first compound 0.04 µM
  relative viability: 0.209
HCC-827; first compound 0.1265 µM
  relative viability: 0.196
HCC-827; first compound 0.4 µM
  relative viability: 0.189
HCC-827; first compound 1.265 µM
  relative viability: 0.195
NCI-H2085; first compound 0.04 µM
  relative viability: 0.762
NCI-H2085; first compound 0.1265 µM
  relative viability: 0.947
NCI-H2085; first compound 0.4 µM
  relative viability: 0.799
NCI-H2085; first compound 1.265 µM
  relative viability: 0.508
LK-2; first compound 0.04 µM
  relative viability: 0.968
LK-2; first compound 0.1265 µM
  relative viability: 0.902
LK-2; first compound 0.4 µM
  relative viability: 0.744
LK-2; first compound 1.265 µM
  relative viability: 0.934
RERF-LC-KJ; first compound 0.04 µM
  relative viability: 0.8
RERF-LC-KJ; first compound 0.1265 µM
  relative viability: 0.848
RERF-LC-KJ; first compound 0.4 µM
  relative viability: 0.832
RERF-LC-KJ; first compound 1.265 µM
  relative viability: 0.825
LXF-289; first compound 0.04 µM
  relative viability: 0.96
LXF-289; first compound 0.1265 µM
  relative viability: 0.936
LXF-289; first compound 0.4 µM
  relative viability: 0.822
LXF-289; first compound 1.265 µM
  relative viability: 0.619
NCI-H23; first compound 0.04 µM
  relative viability: 1.12
NCI-H23; first compound 0.1265 µM
  relative viability: 0.894
NCI-H23; first compound 0.4 µM
  relative viability: 0.919
NCI-H23; first compound 1.265 µM
  relative viability: 0.752
LOU-NH91; first compound 0.04 µM
  relative viability: 0.814
LOU-NH91; first compound 0.1265 µM
  relative viability: 0.837
LOU-NH91; first compound 0.4 µM
  relative viability: 0.766
LOU-NH91; first compound 1.265 µM
  relative viability: 0.651
NCI-H1975; first compound 0.04 µM
  relative viability: 0.873
NCI-H1975; first compound 0.1265 µM
  relative viability: 1.02
NCI-H1975; first compound 0.4 µM
  relative viability: 1
NCI-H1975; first compound 1.265 µM
  relative viability: 0.49
NCI-H1666; first compound 0.04 µM
  relative viability: 0.673
NCI-H1666; first compound 0.1265 µM
  relative viability: 0.522
NCI-H1666; first compound 0.4 µM
  relative viability: 0.796
NCI-H1666; first compound 1.265 µM
  relative viability: 0.344
EMC-BAC-2; first compound 0.04 µM
  relative viability: 0.848
EMC-BAC-2; first compound 0.1265 µM
  relative viability: 1.03
EMC-BAC-2; first compound 0.4 µM
  relative viability: 0.916
EMC-BAC-2; first compound 1.265 µM
  relative viability: 0.946
EPLC-272H; first compound 0.04 µM
  relative viability: 1.16
EPLC-272H; first compound 0.1265 µM
  relative viability: 1.01
EPLC-272H; first compound 0.4 µM
  relative viability: 0.898
EPLC-272H; first compound 1.265 µM
  relative viability: 0.877
HCC-78; first compound 0.04 µM
  relative viability: 0.595
HCC-78; first compound 0.1265 µM
  relative viability: 1.25
HCC-78; first compound 0.4 µM
  relative viability: 0.979
HCC-78; first compound 1.265 µM
  relative viability: 0.64
NCI-H322M; first compound 0.04 µM
  relative viability: 0.589
NCI-H322M; first compound 0.1265 µM
  relative viability: 0.618
NCI-H322M; first compound 0.4 µM
  relative viability: 0.727
NCI-H322M; first compound 1.265 µM
  relative viability: 0.55
NCI-H2126; first compound 0.04 µM
  relative viability: 0.764
NCI-H2126; first compound 0.1265 µM
  relative viability: 0.81
NCI-H2126; first compound 0.4 µM
  relative viability: 0.734
NCI-H2126; first compound 1.265 µM
  relative viability: 0.741
NCI-H1563; first compound 0.04 µM
  relative viability: 1.07
NCI-H1563; first compound 0.1265 µM
  relative viability: 0.939
NCI-H1563; first compound 0.4 µM
  relative viability: 0.933
NCI-H1563; first compound 1.265 µM
  relative viability: 0.968
LU99A; first compound 0.04 µM
  relative viability: 0.972
LU99A; first compound 0.1265 µM
  relative viability: 1.2
LU99A; first compound 0.4 µM
  relative viability: 0.954
LU99A; first compound 1.265 µM
  relative viability: 0.792
SK-LU-1; first compound 0.04 µM
  relative viability: 0.874
SK-LU-1; first compound 0.1265 µM
  relative viability: 0.831
SK-LU-1; first compound 0.4 µM
  relative viability: 0.771
SK-LU-1; first compound 1.265 µM
  relative viability: 0.488
NCI-H2405; first compound 0.04 µM
  relative viability: 1.08
NCI-H2405; first compound 0.1265 µM
  relative viability: 1.34
NCI-H2405; first compound 0.4 µM
  relative viability: 0.868
NCI-H2405; first compound 1.265 µM
  relative viability: 0.867

Reference: the supplement of paper PMC10307832
